Results as given in article PMC3975393, “Structure of N-Terminal Sequence Asp-Ala-Glu-Phe-Arg-His-Asp-Ser of Aβ-Peptide with Phospholipase A2 from Venom of Andaman Cobra Sub-Species Naja naja sagittifera at 2.0 Å Resolution” (International Journal of Molecular Sciences, 2014).

Test system: PLA2
Experiment: X-ray co-crystal structure of the complex with PLA2 (PDB 3JQ5)
Type: binding, Naja naja sagittifera
Details: 2.0 Å resolution, peptide at 10-fold high molar concentration, 10 mM sodium phosphate pH 6.0, 1 mM CaCl2, 3 h incubation
Method: The lyophilized samples of crude cobra venom of Naja naja sagittifera were obtained from Irula Snake Catchers Industrial Cooperative Society, Chennai, India. The crude venom was dissolved in 50 mM Tris-HCl, 100 mM NaCl, pH 7.0 at 100 mg/mL concentration and centrifuged at 12,000× g for 10 min to remove insoluble material. The collected supernatant was size fractionated on Sephadex G-100 column (100 × 2 cm) pre-equilibrated with 50 mM Tris-HCl, 100 mM NaCl, pH 7.0. The column was eluted with the same buffer at a flow rate of 6 mL/h. The peak corresponding to molecular weight of 14 kDa on SDS-PAGE and showing PLA2 activity was pooled for further purification. The pooled fractions were desalted and dialysed against 50 mM Tris-HCl, pH 7.0 and loaded on CM Sephadex C-50 column (Pharmacia, Uppsala, Sweden). The column was washed with the above buffer. The unbound fractions were pooled and dialysed against ammonium acetate buffer, pH 6.0. […] The N-terminal sequence of the first 15 residues was determined. […]
The crystal structure was determined with molecular replacement method using auto-AMoRe from the CCP4 software suit (Collaborative Computational Project, Number 4, 1994). […] The rotation and translation functions calculated with data in the resolution range, 12.0–3.5 Å yielded a unique solution with the first peak being very distinct. […]

“Asp-Ala-Glu-Phe-Arg-His-Asp-Ser [DAEFRHDS]” was tested, and the “binding in the substrate binding site / hydrophobic channel of PLA2” value was “strongly interacted with the non-polar binding-cavity residues of PLA2” and the “binding in the substrate binding site / hydrophobic channel of PLA2” value (listed as octa-peptide) was “fitted well in the substrate binding site of enzyme”.
